From paper PMC10229078, “In vitro effects of lapachol and β-lapachone against Leishmania amazonensis” (Brazilian Journal of Medical and Biological Research, 2023)
Converted amounts (≈) assume the structure as drawn.

Legend:
[1] = test system: Leishmania amazonensis promastigotes; assay: Promastigote growth inhibition, counting in Neubauer chamber (IC50); assay type: cell-based, Leishmania amazonensis (MHOM/BR/1977/LTB0016); details: Leishmania amazonensis; 24 h incubation, growth inhibition by counting
Method: Leishmania growth was evaluated after 24 h of incubation at 25°C with the compounds under the same conditions as previously mentioned. Then, 10 µL of the content of each well was added to a 990 µL (1/100) of formalin solution (2%), and the parasites were counted in a Neubauer chamber. The inhibitory concentration (IC50) of promastigotes was calculated by comparing with untreated promastigotes in culture medium. The results were evaluated by linear regression of the inhibition percentage. The selectivity index (SI CC50/IC50) was calculated by the ratio of toxicity concentration to macrophage vs inhibitory concentration to the parasite growth after 24 h incubation ([27]). All assays were performed in triplicate and repeated at least three times.

[2] = test system: Leishmania amazonensis promastigotes; assay: Viability assay of promastigotes, XTT colorimetric method (LD50); assay type: cell-based, Leishmania amazonensis (MHOM/BR/1977/LTB0016); details: 25°C
Method: The viability of L. amazonensis (MHOM/BR/1977/LTB0016) promastigotes was evaluated using the XTT colorimetric method, which consists in the XTT salt degradation by the mitochondria forming formazan crystals. Promastigote forms (2×10^7 parasites/mL) from a culture in logarithmic growth phase were incubated with lapachol and β-lapachone diluted in 199 culture medium. The drugs were diluted in series, in a ratio of two, starting from 1/2, on a 96-well cell culture plate (TPP™ test plate, Switzerland). The compounds were tested at concentrations from 204.4 to 0.40 µg/mL (lapachol) and 157.5 to 0.31 µg/mL (β-lapachone). After 24, 48, and 72 h of incubation at 25°C, 100 μL of the XTT solution (500 μg/mL) activated with PMS (50 μg/mL) were added to each well and incubated for 4 h at 37°C. The result was measured by absorbance, determined by spectrophotometry (450/650 nm filter, VersaMax™ ELISA microplate reader, USA). The lethal dose (LD50) was defined as the concentrations of the compounds that reduced survival of L. amazonensis by 50% compared to untreated parasites in culture medium. AmB (1.96 to 0.25 µg/mL) was used as positive control of leishmanicidal activity. The therapeutic selectivity index (TSI CC50/LD50) was calculated by the ratio of toxicity to macrophage vs toxicity to parasites after 24 h incubation ([28]). All assays were performed in triplicate and repeated at least three times.

[3] = test system: Leishmania amazonensis promastigotes; assay: Mitochondria membrane potential (ΔΨm), Rh123 flow cytometry; assay type: cell-based; details: for Reduction in ΔΨm: lapachol 76.62 µg/mL, β-lapachone 1.63 µg/mL, H2O2 2 mM; for Variation Index (VI) of Rh123 fluorescence, (MT−MC)/MC: lapachol 76.62 μg/mL, β-lapachone 1.63 μg/mL, PC 2 mM
Method: The ΔΨm was determined using on BD FacsCalibur™ flow cytometer and CellQuest Pro software, with a total of 10.000 events acquired, using a mitochondrial-specific green-fluorescent dye Rh123 ([31]). Briefly, L. amazonensis (2×10^7 parasites/mL) were incubated with lapachol (76.62 µg/mL) and β-lapachone (1.63 µg/mL) for 1, 4, and 24 h at 25°C. After washed with PBS, the parasites were incubated with 5 μg/mL Rh123 for 15 min. After the incubation time, the cells were washed and suspended in PBS for additional incubation of 30 min for analysis. The percentage of fluorescence of Rh123, was determined by the (MT/MC)*100 equation, with MT representing the median fluorescence of the treated parasites and the MC the median fluorescence of negative controls. Alteration in ΔΨm was quantified using an index of variation (IV) obtained by the equation IV = (MT - MC)/MC, where negative IV values correspond to depolarization of the mitochondrial membrane. H2O2 (2 mM) was used as a positive control ([32]).

[4] = test system: Leishmania amazonensis promastigotes; assay: Change in cell volume and morphology of the parasites (flow cytometry FSC-H/SSC-H, SEM); assay type: cell-based; details: 24 h; lapachol 76.62 µg/mL, β-lapachone 1.63 µg/mL, H2O2 2 mM; untreated 93.14%
Method: Promastigote forms (2×10^7 cells) of L. amazonensis untreated (negative control) or treated with 76.62 µg/mL of lapachol and 1.63 µg/mL of β-lapachone were analyzed to observe changes in cell morphology of the parasites induced by the treatment after 24 h of incubation. […] Subsequently, the parasites were analyzed using a BD FacsCalibur flow cytometer (Becton Dickinson, USA) and CellQuest Pro software (Joseph Trotter, Scripps Research Institute, USA), and 10,000 events were acquired. Dot plots were generated, the forward scatter (FSC-H) parameter was analyzed as presenting a correlation with the cell volume.
Scanning electron microscopy (SEM) also was performed to analyze morphological changes in cell surface topography. After 24 h of treatment, the parasites were centrifuged at 576 g for 10 min, and the samples were fixed in 2.5% glutaraldehyde and 0.1 M sodium cacodylate buffer. Poly-L-lysine was used to promote the adhesion of fixed parasites on coverslips. Promastigotes were dehydrated with increasing ethanol concentrations (30-100%), submitted to critical point drying, and metalized with gold for visualization on a Shimadzu 55-550 (Japan) microscope.

Row | SMILES | IC50 [1] [µg/mL] | Promastigotes LD50 ([2]; 24 h incubation) [µg/mL] | Promastigotes LD50 ([2]; 48 h incubation) [µg/mL] | Promastigotes LD50 ([2]; 72 h incubation) [µg/mL] | Reduction in ΔΨm ([3]; 1 h) [%] | Variation Index (VI) of Rh123 fluorescence, (MT−MC)/MC ([3]; 1 h) | Variation Index (VI) of Rh123 fluorescence, (MT−MC)/MC ([3]; 4 h) | Reduction in ΔΨm ([3]; 24 h) [%] | Variation Index (VI) of Rh123 fluorescence, (MT−MC)/MC ([3]; 24 h) | Percentage population of the lower left quadrant gate (FSC-H/SSC-H, cell volume) [4] [%]
1 | C[C@@H]1[C@H](O)[C@@H](C)/C=C/C=C/C=C/C=C/C=C/C=C/C=C/[C@H](O[C@@H]2O[C@H](C)[C@@H](O)[C@H](N)[C@@H]2O)C[C@@H]2O[C@](O)(C[C@@H](O)C[C@@H](O)[C@H](O)CC[C@@H](O)C[C@@H](O)CC(=O)O[C@H]1C)C[C@H](O)[C@H]2C(=O)O [AmB, Amphotericin B, reference compound] | 0.632 ± 0.12 (≈ 0.684 µM) | 0.97 ± 0.09 | 1.65 ± 0.02 | 0.80 ± 0.03 |  |  |  |  |  | 
2 | OO [H2O2, reference compound] |  |  |  |  | 97 | -0.97 | -0.98 | 98 | -0.98 | 49.51
